Measurements as given in patent US12186314B2, “Compositions and methods for treatment, amelioration, and prevention of anesthesia-induced hypothermia” (ARIZONA BOARD OF REGENTS ON BEHALF OF THE UNIVERSITY OF …, priority 2015, dated 2025).
“Also recorded” adds a separate entry of the source. Like-named read-outs stand apart in the source and are kept apart here.

Experiments:
[1] = target: T1, TRPV1 (Rattus norvegicus, UniProt O35433); parameters: from tissue; host or cells: whole live non-anesthetized rats; conditions: non-anesthetized (unanesthetized) rats, cited from earlier work
[2] = target: T1, TRPV1; assay: isoflurane anesthesia-induced hypothermia in adult rats, various TRPV1 antagonists, rectal temperature; assay type: in vivo; parameters: from tissue; host or cells: whole live non-anesthetized rats; conditions: isoflurane 2 L/min, 5% induction, 2.5% maintenance, 20 minutes post anesthesia-induction
Description: After acclimatizing to the testing chamber and obtaining baseline core body temperature, adult rats were anesthetized with isoflurane (2 L/min, 5% induction, 2.5% maintenance) and the anesthetized animals were injected with vehicle or various TRPV1 antagonists at doses described and rectal temperature was monitored for 20 minutes post anesthesia-induction.

[3] = target: T2, TRPV1 (Homo sapiens, UniProt Q8NER1); conditions: non-anesthetized humans; cited from earlier work
T2 construct: host or cells: human subjects (clinical observations)

[4] = target: T1, TRPV1; assay: volatile (isoflurane) anesthesia-induced hypothermia in adult rats, rectal core body temperature; assay type: in vivo; parameters: from tissue; host or cells: whole live non-anesthetized rats; conditions: isoflurane 5% induction, 2.5% maintenance, 0.01, 0.1 and 1 mg/kg, 5 min intervals, 0.1 and 1 mg/kg significant at all time points (p<0.01)
Description: Briefly, after obtaining baseline core body temperature, lightly restrained rats were anesthetized with isoflurane (5% induction, 2.5% maintenance), the effect of varying dose of AMG 517 (0.01, 0.1 and 1 mg/kg) and control (vehicle) on rectally-measured temperature (core body temperature) was measured at 5 min intervals. At 20 minutes, a warming blanket was used to prevent further temperature drop in the control (vehicle) group. Vehicle treated rats developed hypothermia after exposure to anesthesia.

[5] = target: T1, TRPV1; assay: ketamine-induced hypothermia in rats, core body temperature; assay type: in vivo; parameters: from tissue; host or cells: whole live non-anesthetized rats; conditions: ketamine 100 mg/kg, 0.01-1 mg/kg tail vein
Description: This example describes the use of AMG 517 to reverse hypothermia induced by a non-volatile anesthetic (ketamine) (FIG. 5). After taking baseline core body temperature, rats were anesthetized with ketamine (100 mg/kg) and quickly injected with either vehicle or 0.01-1 mg/kg of AMG 517 via a tail vein injection. The core body temperature was measured every 5 minutes for 20 minutes post ketamine injection (n=8 per group).

[6] = target: T1, TRPV1; assay: core body temperature during isoflurane anesthesia and in the post-anesthesia period; assay type: in vivo; parameters: from tissue; host or cells: whole live non-anesthetized rats; conditions: rats
Description: After taking baseline core body temperature, rats were anesthetized with isoflurane and quickly injected with either vehicle or 0.1 mg/kg of AMG 517 via a tail vein injection. The core body temperature was measured every 5 minutes during the duration of anesthesia (45 min) and 30 minutes after that (n=8 per group) (see, FIG. 3).

[7] = target: T1, TRPV1; conditions: 24 hours post surgery
[8] = target: T1, TRPV1; assay: isoflurane anesthesia-induced hypothermia in neonatal rats, core body temperature; assay type: in vivo; parameters: from tissue; host or cells: whole live non-anesthetized rats; conditions: neonatal rats (age 10d), 1 mg/kg i.v. (at 20 min time point) and 2 mg/kg (all time points)
Description: Briefly, after gently separating neonatal male or female rats (age 10d) from the littermates, the animals were exposed to isoflurane anesthesia (5% induction, 2.5% maintenance), and then were injected with either vehicle or AMG 517 (1-2 mg/kg, i.v.) and core body temperature was measured at 5 minute intervals.

T1 sequence (O35433 whole entry): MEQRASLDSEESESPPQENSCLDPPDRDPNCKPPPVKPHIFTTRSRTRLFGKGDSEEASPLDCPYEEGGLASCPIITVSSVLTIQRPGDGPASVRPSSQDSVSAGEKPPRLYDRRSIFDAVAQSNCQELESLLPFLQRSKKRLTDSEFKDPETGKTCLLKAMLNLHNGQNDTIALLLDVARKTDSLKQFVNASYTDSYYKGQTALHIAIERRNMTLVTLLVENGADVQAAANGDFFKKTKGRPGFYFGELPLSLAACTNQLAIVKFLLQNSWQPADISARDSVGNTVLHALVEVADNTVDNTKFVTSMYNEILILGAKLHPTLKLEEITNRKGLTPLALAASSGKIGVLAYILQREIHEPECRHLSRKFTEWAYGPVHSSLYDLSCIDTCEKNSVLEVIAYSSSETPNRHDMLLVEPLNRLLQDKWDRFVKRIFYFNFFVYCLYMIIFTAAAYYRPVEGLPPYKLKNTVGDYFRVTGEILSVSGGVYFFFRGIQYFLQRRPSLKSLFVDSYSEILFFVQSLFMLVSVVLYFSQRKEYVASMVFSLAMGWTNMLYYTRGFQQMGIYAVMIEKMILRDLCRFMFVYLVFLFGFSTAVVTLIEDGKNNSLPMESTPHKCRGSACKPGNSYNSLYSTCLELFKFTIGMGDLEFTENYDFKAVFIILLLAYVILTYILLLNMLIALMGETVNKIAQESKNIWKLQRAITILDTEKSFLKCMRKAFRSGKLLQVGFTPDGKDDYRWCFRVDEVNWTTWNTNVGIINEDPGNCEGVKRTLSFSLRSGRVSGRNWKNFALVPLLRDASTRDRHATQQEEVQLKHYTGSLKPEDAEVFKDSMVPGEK
T2 sequence (Q8NER1 whole entry): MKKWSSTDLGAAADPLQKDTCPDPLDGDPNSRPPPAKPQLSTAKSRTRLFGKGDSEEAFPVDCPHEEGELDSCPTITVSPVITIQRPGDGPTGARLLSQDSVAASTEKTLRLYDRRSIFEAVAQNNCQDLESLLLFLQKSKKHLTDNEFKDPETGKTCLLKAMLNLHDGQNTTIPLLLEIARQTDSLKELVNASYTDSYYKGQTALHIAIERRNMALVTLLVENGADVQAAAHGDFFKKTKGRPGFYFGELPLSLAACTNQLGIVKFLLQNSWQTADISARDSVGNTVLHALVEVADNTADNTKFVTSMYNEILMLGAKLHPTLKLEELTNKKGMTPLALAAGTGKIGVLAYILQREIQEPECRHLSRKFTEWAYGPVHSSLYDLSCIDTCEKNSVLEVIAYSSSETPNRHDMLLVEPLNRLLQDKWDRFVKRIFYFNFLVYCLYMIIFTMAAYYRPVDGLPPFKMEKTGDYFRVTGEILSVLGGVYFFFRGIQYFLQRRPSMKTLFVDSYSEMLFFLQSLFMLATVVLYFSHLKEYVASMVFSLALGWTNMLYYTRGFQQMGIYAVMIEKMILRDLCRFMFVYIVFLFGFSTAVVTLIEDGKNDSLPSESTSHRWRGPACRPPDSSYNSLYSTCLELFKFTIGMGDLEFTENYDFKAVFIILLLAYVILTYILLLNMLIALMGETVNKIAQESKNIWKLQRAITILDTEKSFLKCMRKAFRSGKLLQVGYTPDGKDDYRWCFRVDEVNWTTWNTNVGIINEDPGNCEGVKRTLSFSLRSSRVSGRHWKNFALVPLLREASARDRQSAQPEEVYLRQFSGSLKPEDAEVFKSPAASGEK

Row | SMILES | ability to cause hyperthermia [1] | reversal/prevention of anesthesia-induced hypothermia (rectal temperature) [2] | ability to cause hyperthermia [3] | also measured
1 | Cc1cc2c(NC(=O)N[C@@H]3CC(CF)(CF)Oc4cc(Cl)ccc43)cccc2cn1 [A-1165442] | unable to cause hyperthermia |  |  | 
2 | COc1cccc(NC(=O)/C=C/c2ccc(Cl)cc2)c1 [SB366791] | unable to cause hyperthermia | dose dependently reverse anesthesia-induced hypothermia |  | ability to cause hyperthermia ([1]; listed as SB): cause hyperthermia in unanesthetized rats
3 | CC(C)(C)c1ccc(/C=C/C(=O)Nc2ccc3c(c2)OCCO3)cc1 [AMG 9810] | able to cause hyperthermia | dose dependently reverse anesthesia-induced hypothermia | able to cause hyperthermia | ability to cause hyperthermia ([1]; listed as AMG): cause hyperthermia in unanesthetized rats
4 | CC(C)(C)c1ccc2c(c1)CC[C@H]2NC(=O)Nc1cccc2[nH]ncc12 [ABT 102] | able to cause hyperthermia | dose dependently reverse anesthesia-induced hypothermia | able to cause hyperthermia | ability to cause hyperthermia ([1]; listed as ABT): cause hyperthermia in unanesthetized rats
5 | Oc1cc2c(cc1O)CN(C(=S)NCCc1ccc(Cl)cc1)CCC2 [capsazepine] | unable to cause hyperthermia; also recorded: don't | able to prevent anesthesia-induced hypothermia; also recorded: dose dependently reverse anesthesia-induced hypothermia |  | 
6 | CC(=O)Nc1nc2c(Oc3cc(-c4ccc(C(F)(F)F)cc4)ncn3)cccc2s1 [AMG 517] | able to cause hyperthermia |  | able to cause hyperthermia | reversal of anesthesia-induced hypothermia (rectally-measured core body temperature) [4]: dose dependently reversed anesthesia-induced hypothermia; hyperthermia under ketamine anesthesia [5]: without causing hyperthermia at all time points tested; reversal of ketamine-induced hypothermia (core body temperature) ([5]; 20 minutes post ketamine): dose dependently and statistically significantly; hyperthermia in the post-anesthesia period ([6]; 0.1 mg/kg tail vein, 30 minutes after anesthesia, 0.1 mg/kg): does not produce hyperthermia in the post-anesthesia period; also recorded: did not cause hyperthermia even when the animals recovered from anesthesia; development of hypothermia during anesthesia (core body temperature) ([6]; isoflurane 45 min, 0.1 mg/kg tail vein injection): never developed hypothermia throughout the anesthesia period; opioid sparing effect on postsurgical thermal and mechanical hyperalgesia ([7]; rats, preemptive tail vein dose before incision, subcutaneous morphine): opioid sparing effect; reversal of anesthesia-induced hypothermia (core body temperature) [8]: partially and statistically significantly
7 | CN1CC[C@]23c4c5ccc(O)c4O[C@H]2[C@@H](O)C=C[C@H]3[C@H]1C5 [morphine] |  |  |  | morphine analgesic effect on postsurgical thermal and mechanical hyperalgesia ([7]; animals that received preemptive TRPV1 antagonist treatment before the surgical insult): analgesic effect at much lower doses of 0.3 and 0.6 mg/kg; morphine analgesic effect on postsurgical thermal and mechanical hyperalgesia ([7]; vehicle treated animals): not responsive to morphine until the dose of morphine was raised to 1 mg/kg
